Series [1] has as its system traumatic brain injury (TBI) rats. The series can be described thus: Water maze test (acquisition and probe trial) 12 weeks after fluid-percussion brain injury. In kind it is in vivo, Sprague Dawley rats. An excerpt: (§1) Sprague Dawley rats were subjected to moderate parasagittal fluid-percussion brain injury using methods described in Atkins et al, J Neurosci Res 90, 1861-71 (2012). Adult male Sprague Dawley rats (280-300 g; Charles Rivers Laboratories) were anesthetized with 3% isoflurane, 70% N2O, and 30% O2 and received a 4.8-mm craniotomy (3.8 mm posterior to bregma, 2.5 mm lateral to the midline) over the right parietal cortex. Twenty-four hours after the craniotomy, the animals were re-anesthetized (3% isoflurane, 70% N2O, and 30% O2); immobilized with pancuronium bromide (1.0 mg/kg); and mechanically ventilated with 1% isoflurane, 70% N2O, and 30% O2. When physiological measurements had stabilized, the animals received a fluid-percussion pulse (1.8-2.2 atmospheres, 14-16 msec) or sham injury with the fluid-percussion brain injury device. Blood gases, blood pH, and mean arterial blood pressure were monitored for 30 min prior to the fluid percussion brain injury or sham surgery and for up to 1 hr post-injury to maintain normal levels. Injured and sham injured rats were coded such that the investigator assessing the behavior of the animals would not know their injury status.
2-(4-(2-(5-chlorothiophen-2-yl)-5-ethyl-6-methylpyrimidin-4-yl)amino)phenyl)acetic acid (Compound 33) was dissolved in 100% dimethylsulfoxide (DMSO) at 1 mg/ml and then diluted 20 fold into 0.9% sodium chloride (saline) with 2 molar equivalents of sodium hydroxide (0.258 mM) to yield a final concentration of Compound 33 at 0.05 mg/ml in 5% DMSO saline. Rats treated with vehicle received 5% DMSO in saline. Four treatment groups were studied; TBI rats treated with vehicle, TBI rats treated with Compound 33, sham rats treated with vehicle, and sham rats treated with Compound 33. Compound 33 and vehicle were delivered by intraperitoneal injection. Compound 33 was administered at a dose of 0.3 mg/kg. […] At 12 weeks after surgery, the rats were administered either vehicle or Compound 33 only 30 minutes prior to training on the water maze test.
Twelve weeks after surgery, rats were tested for cognitive ability using the water maze test. Animals received vehicle or Compound 33 (0.3 mg/kg, i.p.) 30 min prior to water maze training. The circular pool (122 cm diameter, 60 cm deep) was filled with opaque water at 24° C. and surrounded by distinct, invariant extramaze cues. An escape platform, 9.3 cm in diameter, was submerged 1.5 cm below the water surface. Animals received four 60 s acquisition trials per day for 4 days with inter-trial intervals of 4 min. […] Path length to reach the platform, escape latency, and swim speed were analyzed with EthoVision software (Noldus Information Technology). […]

Series [2] shares this test system. In words: Working memory version of the water maze task, week 14 post-surgery. It counts as in vivo, Sprague Dawley rats. As to conditions: 0.3 mg/kg 30 min prior to testing.
Description: as §1, with “status. […]” for “status.”
To assess working memory in TBI animals, a working memory version of the water maze task was used on week 14 post-surgery. […] Escape latency differences between the first location trial and subsequent match trial were measured.

The next series concerns normal uninjured brains. As to conditions: cited from earlier work.
The subject of the next series is brain injury. The conditions noted are these: within 30 minutes of a brain injury; cited from earlier work.
The test system of series [3] is subjects suffering a brain injury. The conditions noted are these: administered 1 hour after the injury; cited from earlier work.
Setting [4] is: 0.3 mg/kg i.p. 30 min prior to training, 4 training days, 12 weeks after surgery.

Turning to `CCc1c(C)nc(-c2ccc(Cl)s2)nc1Nc1ccc(CC(=O)O)cc1` [Compound 33], in series [1] (setting [4]), the “escape latency to reach the hidden platform during acquisition” value is given as “progressive decrease” and the “path length to reach the hidden platform during acquisition” value is given as “progressive decrease”. In addition, in series [1] (0.3 mg/kg i.p., 4th day of acquisition, versus sham animals), the “indices of learning (escape latency and path length) on the 4th day of acquisition” value was “comparable to sham animals treated with vehicle or Compound 33”. In addition, the “time in the target quadrant, probe trial (retention)” value in series [1] (24 h after last acquisition trial, platform removed, no drug on probe day) is “spent less time in the target quadrant as compared to Compound 33-treated TBI animals”. Further, the “working memory (escape latency difference between location and match trial)” value in series [2] is reported as “this deficit was rescued by Compound 33 treatment”.

Consider `COc1ccc(C2CNC(=O)C2)cc1OC1CCCC1` (stereo not drawn) [rolipram], for which the learning and memory result in the series with normal uninjured brains is “improve learning and memory”. The “effect on brain injury” value in the series on brain injury is listed as “exacerbates the brain injury”.

As to `CC(=O)CCCCn1c(=O)c2c(ncn2C)n(C)c1=O` [pentoxyfilline], in series [3], the TNF-α entry was “reduced TNF-α” and the “outcomes after brain injury” value is given as “improved outcomes”.

The record behind these values is patent publication US8865723B2, “Selective PDE4 B inhibition and improvement in cognition in subjects with brain injury” (Tetra Discovery Partners LLC, priority 2012, dated 2014).
